Measured values as given in patent US12662491B2 (Redona Therapeutics, Inc., priority 2020, dated 2026).

molecular target: T1, Zcchc11 enzyme (Homo sapiens, UniProt Q5TAX3); test: TUTase assay (Zcchc11 assay, Lin28a-dependent polyuridylation of pre-let-7); assay type: biochemical; details: Lin28a-dependent Zcchc11 (Z11) TUTase activity; read-out: Potency Lin28a-dep Z11 IC50
T1 construct: made in house; host or cells: HEK293 cells (Zcchc11); E. coli Rosetta II (LIN28A)
T1 sequence (Q5TAX3 212-1420): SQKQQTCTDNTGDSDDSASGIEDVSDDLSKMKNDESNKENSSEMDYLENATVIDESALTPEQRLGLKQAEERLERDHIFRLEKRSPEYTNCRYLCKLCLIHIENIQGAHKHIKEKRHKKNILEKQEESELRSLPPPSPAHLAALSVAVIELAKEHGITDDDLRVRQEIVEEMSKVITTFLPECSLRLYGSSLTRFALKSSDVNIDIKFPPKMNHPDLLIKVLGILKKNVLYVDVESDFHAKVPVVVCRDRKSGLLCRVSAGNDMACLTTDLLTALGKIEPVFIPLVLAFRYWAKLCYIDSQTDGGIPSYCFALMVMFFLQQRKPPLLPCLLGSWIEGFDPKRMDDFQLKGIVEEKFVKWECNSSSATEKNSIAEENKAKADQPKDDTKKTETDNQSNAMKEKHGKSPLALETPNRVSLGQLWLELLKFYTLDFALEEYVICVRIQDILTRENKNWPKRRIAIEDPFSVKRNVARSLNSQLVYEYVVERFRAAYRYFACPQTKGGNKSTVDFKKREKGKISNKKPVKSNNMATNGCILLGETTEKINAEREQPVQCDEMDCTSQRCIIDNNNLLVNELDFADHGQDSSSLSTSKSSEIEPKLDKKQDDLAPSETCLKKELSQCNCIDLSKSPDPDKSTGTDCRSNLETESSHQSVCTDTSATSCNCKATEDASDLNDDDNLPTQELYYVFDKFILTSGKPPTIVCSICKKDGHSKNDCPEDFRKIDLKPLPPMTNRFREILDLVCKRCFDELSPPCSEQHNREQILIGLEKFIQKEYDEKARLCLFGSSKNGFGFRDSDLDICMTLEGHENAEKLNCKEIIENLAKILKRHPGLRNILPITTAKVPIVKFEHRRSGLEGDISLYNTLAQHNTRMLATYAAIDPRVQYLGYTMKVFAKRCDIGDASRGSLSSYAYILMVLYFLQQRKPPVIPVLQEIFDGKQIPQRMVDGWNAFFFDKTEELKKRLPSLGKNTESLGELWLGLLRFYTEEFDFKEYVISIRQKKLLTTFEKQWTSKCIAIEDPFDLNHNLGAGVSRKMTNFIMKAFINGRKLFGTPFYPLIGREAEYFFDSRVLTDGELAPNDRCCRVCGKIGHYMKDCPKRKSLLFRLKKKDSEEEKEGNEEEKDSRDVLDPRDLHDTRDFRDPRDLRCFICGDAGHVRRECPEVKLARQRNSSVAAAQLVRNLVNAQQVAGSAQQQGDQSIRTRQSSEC
Outline: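 Readout: time-dependent quench of 5′-fluorescein pre-let-7 (2 nM) as 3′-rhodamine A20 probe anneals to poly(U) tails. Enzyme 0.2 nM Zcchc11 (res. 212-1420), LIN28A 10 nM, UTP 5 uM; pH 7.3 HEPES, 150 mM KCl, 5 mM MgCl2, RT. 4-parameter IC50; 100% = DMSO, 0% = no UTP.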

| Structure (SMILES) | IC50 |
| --- | --- |
| COCCOc1ccc(-n2cc(C(=O)O)c(=O)c3cc(F)c(N4CCC[C@@H]4COc4ncccc4C)cc32)cc1 [Compound 124, (R)-6-fluoro-1-(4-(2-methoxyethoxy)phenyl)-7-(2-(((3-methylpyridin-2-yl)oxy)methyl)pyrrolidin-1-yl)-4-oxo-1,4-dihydro-quinoline-3-carboxylic acid] | ≤ 1000 nM |
| COCCOc1cnc(-n2cc(C(=O)O)c(=O)c3cc(F)c(N4CCC[C@@H]4COc4ncccc4C)cc32)cn1 [Compound 125, (R)-6-fluoro-1-(5-(2-methoxyethoxy)pyrazin-2-yl)-7-(2-(((3-methylpyridin-2-yl)oxy)methyl)pyrrolidin-1-yl)-4-oxo-1,4-dihydro-quinoline-3-carboxylic acid] | ≤ 1000 nM |
| O=C(O)c1cn(-c2ccc(Cl)c(O)c2)c2cc(N3CCC[C@@H]3COc3ncccc3Cl)c(Cl)cc2c1=O [Compound 126, (R)-6-chloro-1-(4-chloro-3-hydroxy-phenyl)-7-(2-(((3-chloropyridin-2-yl)oxy)methyl)pyrrolidin-1-yl)-4-oxo-1,4-dihydro-quinoline-3-carboxylic acid] | ≤ 1000 nM |
| O=C(O)c1cn(-c2ccc(O)c(F)c2)c2cc(N3CCC[C@@H]3COc3ncccc3Cl)c(Cl)cc2c1=O [Compound 127, (R)-6-chloro-7-(2-(((3-chloropyridin-2-yl)oxy)methyl)pyrrolidin-1-yl)-1-(3-fluoro-4-hydroxy-phenyl)-4-oxo-1,4-dihydro-quinoline-3-carboxylic acid] | ≤ 1000 nM |
| O=C(O)c1cn(-c2ccc3[nH]ncc3c2)c2cc(N3CCC[C@@H]3COc3ncccc3Cl)c(Cl)cc2c1=O [Compound 128, (R)-6-chloro-7-(2-(((3-chloropyridin-2-yl)oxy)methyl)pyrrolidin-1-yl)-1-(1H-indazol-5-yl)-4-oxo-1,4-dihydro-quinoline-3-carboxylic acid] | ≤ 1000 nM |
| CC1(n2cc(C(=O)O)c(=O)c3cc(Cl)c(N4CCC[C@@H]4COc4ncccc4Cl)cc32)CC1 [Compound 129, (R)-6-chloro-7-(2-(((3-chloropyridin-2-yl)oxy)methyl)pyrrolidin-1-yl)-1-(1-methylcyclo-propyl)-4-oxo-1,4-dihydro-quinoline-3-carboxylic acid] | ≤ 1000 nM |
| O=C(O)c1cn(-c2ccc(F)c(O)c2)c2cc(N3CCC[C@@H]3COc3ncccc3Cl)c(Cl)cc2c1=O [Compound 130, (R)-6-chloro-7-(2-(((3-chloropyridin-2-yl)oxy)methyl)pyrrolidin-1-yl)-1-(4-fluoro-3-hydroxy-phenyl)-4-oxo-1,4-dihydro-quinoline-3-carboxylic acid] | ≤ 1000 nM |
| O=C(O)c1cn(-c2ccc(O)c(Cl)c2)c2cc(N3CCC[C@@H]3COc3ncccc3Cl)c(Cl)cc2c1=O [Compound 131, (R)-6-chloro-1-(3-chloro-4-hydroxy-phenyl)-7-(2-(((3-chloropyridin-2-yl)oxy)methyl)pyrrolidin-1-yl)-4-oxo-1,4-dihydro-quinoline-3-carboxylic acid] | ≤ 1000 nM |
| Cc1cccnc1OC[C@H]1CCCN1c1c(F)cc2c(=O)c(C(=O)O)cn(-c3ccc(O)cc3)c2c1F [Compound 132, (R)-6,8-difluoro-1-(4-hydroxy-phenyl)-7-(2-(((3-methylpyridin-2-yl)oxy)methyl)pyrrolidin-1-yl)-4-oxo-1,4-dihydro-quinoline-3-carboxylic acid] | ≤ 1000 nM |
| Cc1cccnc1OC[C@H]1CCCN1c1nc2c(cc1F)c(=O)c(C(=O)O)cn2-c1ccc(O)cc1 [Compound 133, (R)-6-fluoro-1-(4-hydroxy-phenyl)-7-(2-(((3-methylpyridin-2-yl)oxy)methyl)pyrrolidin-1-yl)-4-oxo-1,4-dihydro-1,8-naphthyridine-3-carboxylic acid] | ≤ 1000 nM |
| O=C(O)c1cn(-c2ccc(O)cc2)c2c(F)c(N3CCC[C@@H]3COc3ccccn3)c(F)cc2c1=O [Compound 134, (R)-6,8-difluoro-1-(4-hydroxy-phenyl)-4-oxo-7-(2-((pyridin-2-yloxy)methyl)pyrrolidin-1-yl)-1,4-dihydro-quinoline-3-carboxylic acid] | ≤ 1000 nM |
| O=C(O)c1cn(-c2ccc(O)cc2F)c2cc(N3CCC[C@@H]3COc3cccnn3)c(F)cc2c1=O [Compound 135, (R)-6-fluoro-1-(2-fluoro-4-hydroxy-phenyl)-4-oxo-7-(2-((pyridazin-3-yloxy)methyl)pyrrolidin-1-yl)-1,4-dihydro-quinoline-3-carboxylic acid] | ≤ 1000 nM |
| O=C(O)c1cn(-c2ccc(O)cc2F)c2cc(N3CCC[C@@H]3COc3ccncn3)c(F)cc2c1=O [Compound 136, (R)-6-fluoro-1-(2-fluoro-4-hydroxy-phenyl)-4-oxo-7-(2-((pyrimidin-4-yloxy)methyl)pyrrolidin-1-yl)-1,4-dihydro-quinoline-3-carboxylic acid] | 1000 to 10000 nM |
| COc1ccc(COc2ccc(-n3cc(C(=O)O)c(=O)c4cc(F)c(N5CCC[C@@H]5COc5ncccn5)cc43)c(F)c2)cc1 [Compound 137, (R)-6-fluoro-1-(2-fluoro-4-((4-methoxy-benzyl)oxy)phenyl)-4-oxo-7-(2-((pyrimidin-2-yloxy)methyl)pyrrolidin-1-yl)-1,4-dihydro-quinoline-3-carboxylic acid] | ≤ 1000 nM |
| COc1ccc(COc2ccc(-n3cc(C(=O)O)c(=O)c4cc(F)c(N5CCC[C@@H]5COc5cccnn5)cc43)c(F)c2)cc1 [Compound 138, (R)-6-fluoro-1-(2-fluoro-4-((4-methoxy-benzyl)oxy)phenyl)-4-oxo-7-(2-((pyridazin-3-yloxy)methyl)pyrrolidin-1-yl)-1,4-dihydro-quinoline-3-carboxylic acid] | ≤ 1000 nM |
| COc1ccc(COc2ccc(-n3cc(C(=O)O)c(=O)c4cc(F)c(N5CCC[C@@H]5COc5ccncn5)cc43)c(F)c2)cc1 [Compound 139, (R)-6-fluoro-1-(2-fluoro-4-((4-methoxy-benzyl)oxy)phenyl)-4-oxo-7-(2-((pyrimidin-4-yloxy)methyl)pyrrolidin-1-yl)-1,4-dihydro-quinoline-3-carboxylic acid] | ≤ 1000 nM |
| CC(C)[C@H]1COC(=O)N1C[C@H]1CCCN1c1cc2c(cc1Cl)c(=O)c(C(=O)O)cn2C1(C)CC1 [Compound 140, 6-chloro-7-((R)-2-(((S)-4-isopropyl-2-oxooxazolidin-3-yl)methyl)pyrrolidin-1-yl)-1-(1-methylcyclo-propyl)-4-oxo-1,4-dihydro-quinoline-3-carboxylic acid] | > 50000 nM |
| CC(C)[C@@H]1COC(=O)N1C[C@H]1CCCN1c1cc2c(cc1Cl)c(=O)c(C(=O)O)cn2C1(C)CC1 [Compound 141, 6-chloro-7-((R)-2-(((R)-4-isopropyl-2-oxooxazolidin-3-yl)methyl)pyrrolidin-1-yl)-1-(1-methylcyclo-propyl)-4-oxo-1,4-dihydro-quinoline-3-carboxylic acid] | > 50000 nM |
| O=C(O)c1cn(-c2cccc(F)c2F)c2cc(N3CCC[C@@H]3COc3ccccn3)c(F)cc2c1=O [Compound 142, (R)-1-(2,3-difluorophenyl)-6-fluoro-4-oxo-7-(2-((pyridin-2-yloxy)methyl)pyrrolidin-1-yl)-1,4-dihydro-quinoline-3-carboxylic acid] | 1000 to 10000 nM |
| O=C(O)c1cn(-c2cc(F)ccc2F)c2cc(N3CCC[C@@H]3COc3ccccn3)c(F)cc2c1=O [Compound 143, (R)-1-(2,5-difluorophenyl)-6-fluoro-4-oxo-7-(2-((pyridin-2-yloxy)methyl)pyrrolidin-1-yl)-1,4-dihydro-quinoline-3-carboxylic acid] | 1000 to 10000 nM |
